Test results taken from ChEMBL document CHEMBL5126518, “Quercetin derivatives: Drug design, development, and biological activities, a review” (Eur J Med Chem, 2022).
≈ marks a conversion by molar mass, not a printed value.

How the values were obtained:
MCF7 [1] = experiment: Antiproliferative activity against human MCF7 assessed as reduction in cell viability incubated for 48 hrs by MTT assay; assay type: functional
[2] = Competitive inhibition of xanthine oxidase (unknown origin) at 0.05 uM using xanthine as substrate preincubated with substrate for 1 min followed by compound addition by double beam spectrophotometer analysis relative to control
[3] = biological target: UDP-galactopyranose mutase (Mycobacterium tuberculosis) (UniProt P9WIQ1); experiment: Inhibition of Mycobacterium tuberculosis UGM at 20 uM by HPLC inhibition assay relative to control
MDA-MB-231 [4] = experiment: Antiproliferative activity against human MDA-MB-231 cells assessed as cell growth inhibition measured after 48 hrs by MTT assay; assay type: functional, cell-based; settings: MDA-MB-231, 48 h
MDA-MB-231 [5] = experiment: Antiproliferative activity against human MDA-MB-231 cells assessed as cell growth inhibition measured after 48 hrs by MTT assay relative to control; assay type: functional; set-up: scale not given: the % may be the effect or the level left
[6] = Antioxidant activity assessed as DPPH radical scavenging activity after 30 mins under dark condition; assay type: functional
[7] = Metal chelating activity assessed as compound-Fe2+ complex formation by measuring binding energy
[8] = Antioxidant activity assessed as ABTS radical scavenging activity at 5 wt% incubated for 6 mins in presence of Si and PCL50 by UV spectrophotometer analysis relative to control; assay type: functional
J774.A1 = experiment: Inhibition of LPS-induced NO production in mouse J774.A1 cells pre-incubated with compound for 1 hr followed by LPS stimulation for 24 hrs by ELISA assay; assay type: functional, cell-based
[9] = Antioxidant activity assessed as ABTS radical scavenging activity at 10 wt% incubated for 6 mins in presence of Si and PCL50 by UV spectrophotometer analysis relative to control; assay type: functional
[10] = Competitive inhibition of xanthine oxidase (unknown origin) at 0.4 uM using xanthine as substrate preincubated with substrate for 1 min followed by compound addition by double beam spectrophotometer analysis relative to control
[11] = biological target: Urease subunit alpha/Urease subunit beta (Helicobacter pylori (strain ATCC 700392 / 26695) (Campylobacterpylori), UniProt P69996); experiment: Inhibition of Helicobacter pylori urease assessed as measuring ammonia production incubated for 1.5 hr by indophenol method; assay type: protein-complex assay
[12] = Non-competitive inhibition of xanthine oxidase (unknown origin) at 0.4 uM using xanthine as substrate preincubated with substrate for 1 min followed by compound addition by double beam spectrophotometer analysis relative to control
[13] = Antioxidant activity assessed as ABTS radical scavenging activity at 15 wt% incubated for 6 mins in presence of Si and PCL50 by UV spectrophotometer analysis relative to control; assay type: functional
[14] = Metal chelating activity assessed as compound-Cu2+ complex formation by measuring binding energy
Candida albicans [15] = experiment: Antifungal activity against Candida albicans 10/15 assessed as fungal growth inhibition measured after 24 hrs by microdilution assay; assay type: functional
Candida albicans [16] = experiment: Antifungal activity against Candida albicans 13/15 assessed as fungal growth inhibition measured after 24 hrs by microdilution assay; assay type: functional
[17] = Antioxidant activity assessed as DPPH radical scavenging activity up to 2 mM relative to control; assay type: functional
Candida albicans [18] = experiment: Antifungal activity against Candida albicans 475/15 assessed as fungal growth inhibition measured after 24 hrs by microdilution assay; assay type: functional
MCF7 [19] = experiment: Induction of apoptosis in human MCF7 cells assessed as early apoptotic cells at 50 uM measured after 12 hrs by annexin V-FITC/propidium iodide staining based flow cytometry relative to control; assay type: functional
Candida albicans [20] = experiment: Antifungal activity against Candida albicans 527/14 assessed as fungal growth inhibition measured after 24 hrs by microdilution assay; assay type: functional
[21] = Metal chelating activity assessed as Zn2+-compound complex formation by measuring binding energy
HCT-116 [22] = experiment: Anticancer activity against human HCT-116 cells xenografted in mouse assessed as fold decrease in tumor growth measured after 3 weeks by digital caliper method; assay type: functional
Mus musculus = organism: Mus musculus; experiment: Anticancer activity against ApcMin harboring mouse model assessed as fold increase in p53 expression measured after 16 weeks by […]; assay type: functional, Neoplasm
HCT-116 [23] = experiment: Antiproliferative activity against human HCT-116 cells assessed as cell growth inhibition by Z2 coulter counter based analysis; assay type: functional
[24] = biological target: Type-1 angiotensin II receptor (Homo sapiens, UniProt P30556); experiment: Inhibition of human AT1R expressed in HEK293 cells by non-linear regression analysis; assay type: cell-based
[25] = biological target: UDP-galactopyranose mutase (Mycobacterium tuberculosis, UniProt P9WIQ1); experiment: Binding affinity to Mycobacterium tuberculosis UGM assessed as dissociation constant by fluorescence polarization assay
[26] = Cytotoxicity against MDCK cells assessed as reduction in cell viability incubated for 48 hrs by SRB assay; assay type: toxicity, cell-based, Canis lupus familiaris; settings: dog
Influenza A virus = experiment: Antiviral activity against influenza A/PR/8/34 H1N1 virus infected in MDCK cells assessed as cell growth inhibition measured after 48 hrs by SRB assay; assay type: functional, organism-based; settings: A/PR/8/34 H1N1, MDCK
Enterobacter cloacae = experiment: Antibacterial activity against Enterobacter cloacae assessed as cell growth inhibition incubated for 18 hrs by agar overlay method; assay type: functional
Proteus mirabilis = experiment: Antibacterial activity against Proteus mirabilis assessed as cell growth inhibition incubated for 18 hrs by agar overlay method; assay type: functional
Klebsiella pneumoniae = experiment: Antibacterial activity against Klebsiella pneumoniae ATCC 13883 assessed as cell growth inhibition incubated for 18 hrs by agar overlay method; assay type: functional
Bacillus subtilis = experiment: Antibacterial activity against Bacillus subtilis ATCC 6633 assessed as cell growth inhibition incubated for 18 hrs by agar overlay method; assay type: functional
Heyndrickxia coagulans = experiment: Antibacterial activity against Bacillus coagulans assessed as cell growth inhibition incubated for 18 hrs by agar overlay method; assay type: functional
Bacillus cereus = experiment: Antibacterial activity against Bacillus cereus NAS 596 assessed as cell growth inhibition incubated for 18 hrs by agar overlay method; assay type: functional
Staphylococcus aureus = experiment: Antibacterial activity against Staphylococcus aureus ATCC 6538 assessed as cell growth inhibition incubated for 18 hrs by agar overlay method; assay type: functional
Escherichia coli = experiment: Antibacterial activity against Escherichia coli ATCC 25922 assessed as cell growth inhibition incubated for 18 hrs by agar overlay method; assay type: functional
U-87 MG = experiment: Antiproliferative activity against human U87 cells assessed as reduction in cell viability incubated for 48 hrs by SRB assay; assay type: functional, U-87MG ATCC
LN-229 = experiment: Antiproliferative activity against human LN-229 cells assessed as reduction in cell viability incubated for 48 hrs by SRB assay; assay type: functional

UDP-galactopyranose mutase (Mycobacterium tuberculosis), sequence (P9WIQ1 whole entry, looked up): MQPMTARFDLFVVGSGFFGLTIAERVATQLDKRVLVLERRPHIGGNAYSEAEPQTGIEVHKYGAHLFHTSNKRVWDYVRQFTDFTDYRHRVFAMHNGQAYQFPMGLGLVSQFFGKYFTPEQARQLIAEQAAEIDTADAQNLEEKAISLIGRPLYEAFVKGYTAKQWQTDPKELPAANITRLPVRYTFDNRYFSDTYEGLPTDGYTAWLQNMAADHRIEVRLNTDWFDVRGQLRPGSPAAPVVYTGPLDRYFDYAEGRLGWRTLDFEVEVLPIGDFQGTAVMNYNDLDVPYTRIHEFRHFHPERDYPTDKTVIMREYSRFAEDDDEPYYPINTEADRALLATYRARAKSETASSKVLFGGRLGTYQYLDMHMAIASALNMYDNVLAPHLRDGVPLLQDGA
Type-1 angiotensin II receptor, sequence (P30556 whole entry): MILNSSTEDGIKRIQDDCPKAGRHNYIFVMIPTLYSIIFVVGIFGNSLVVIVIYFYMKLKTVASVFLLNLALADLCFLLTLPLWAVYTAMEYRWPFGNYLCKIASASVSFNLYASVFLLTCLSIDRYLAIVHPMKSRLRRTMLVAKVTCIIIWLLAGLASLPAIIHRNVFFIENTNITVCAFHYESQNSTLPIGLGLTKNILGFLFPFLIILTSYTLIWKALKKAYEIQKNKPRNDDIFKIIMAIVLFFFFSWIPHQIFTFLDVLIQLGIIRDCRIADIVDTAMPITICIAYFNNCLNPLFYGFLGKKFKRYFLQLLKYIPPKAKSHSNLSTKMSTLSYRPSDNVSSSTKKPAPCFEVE
UDP-galactopyranose mutase, sequence (P9WIQ1 whole entry): as the sequence (P9WIQ1 whole entry, looked up) above
Urease subunit alpha/Urease subunit beta, sequence (P69996 whole entry): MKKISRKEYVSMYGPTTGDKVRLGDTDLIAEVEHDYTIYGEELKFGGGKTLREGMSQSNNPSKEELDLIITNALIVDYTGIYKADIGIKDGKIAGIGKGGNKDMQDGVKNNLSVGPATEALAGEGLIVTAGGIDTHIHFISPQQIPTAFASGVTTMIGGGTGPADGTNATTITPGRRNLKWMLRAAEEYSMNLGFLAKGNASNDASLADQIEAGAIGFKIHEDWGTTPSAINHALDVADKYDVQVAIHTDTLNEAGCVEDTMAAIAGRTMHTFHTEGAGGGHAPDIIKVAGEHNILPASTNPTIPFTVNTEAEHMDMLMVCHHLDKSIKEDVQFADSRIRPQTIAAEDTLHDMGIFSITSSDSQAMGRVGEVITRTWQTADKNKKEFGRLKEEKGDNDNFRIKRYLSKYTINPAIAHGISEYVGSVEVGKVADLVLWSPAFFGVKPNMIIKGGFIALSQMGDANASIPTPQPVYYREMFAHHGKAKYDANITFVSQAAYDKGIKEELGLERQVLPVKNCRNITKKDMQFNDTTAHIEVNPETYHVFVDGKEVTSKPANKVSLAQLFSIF
Urease subunit alpha/Urease subunit beta, sequence (P14916 whole entry, further chain): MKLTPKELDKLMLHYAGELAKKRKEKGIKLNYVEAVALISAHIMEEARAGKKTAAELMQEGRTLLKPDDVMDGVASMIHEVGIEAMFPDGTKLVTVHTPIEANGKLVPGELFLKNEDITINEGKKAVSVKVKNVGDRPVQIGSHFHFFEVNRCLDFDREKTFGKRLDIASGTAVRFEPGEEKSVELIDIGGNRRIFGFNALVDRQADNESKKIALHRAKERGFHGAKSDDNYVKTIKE

Work on `COc1cc(-c2oc3cc(O)cc(O)c3c(=O)c2O[C@@H]2O[C@H](C(=O)[O-])[C@@H](O)[C@H](O)[C@H]2O)ccc1O.[Na+]` yielded an Activity (MCF7 [1]) of 49.8%.

With `O=c1oc2c(O)ccc(-c3oc4cc(O)cc(O)c4c(=O)c3O)c2s1` the inhibition [2] was 50%.

For `O=c1c(O)c(-c2ccc(O)c(O)c2)oc2c(CN3CCSCC3)c(O)cc(O)c12`, the inhibition [3] was 57.9%.

With `COc1cc(OC)c2/c(=[S+]/C)c(OC)c(-c3ccc(OC)c(OC)c3)oc2c1.[I-]` the IC50 (MDA-MB-231 [4]) was 1.84 µM, the Activity (MDA-MB-231 [5]) was 38.1% and the Activity [6] was 0.05 mM.

`O=c1c(O)c(-c2ccc(O)c(O)c2)oc2cc(O)cc(O)c12` [QUERCETIN] gave an Activity [7] of 694 kcal/mol, an Activity [8] of 15.6% and an IC50 (J774.A1) of 49.1 µM. The Activity [9] was 24.7%, the inhibition [10] was 50% and the Ki [11] was 9.34 µM. The inhibition [12] was 50%, the Activity [13] was 8.4% and the Activity (MCF7 [1]) was 70.8%. The Activity [14] was 918 kcal/mol, the MIC (Candida albicans [15]) was 37.5 µg/mL (≈ 124 µM) and the MIC (Candida albicans [16]) was 37.5 µg/mL (≈ 124 µM). It also gave an Activity [17] of 80%, an MIC (Candida albicans [18]) of 37.5 µg/mL (≈ 124 µM) and an Activity (MCF7 [19]) of 44.1%. It also gave an MIC (Candida albicans [20]) of 37.5 µg/mL (≈ 124 µM), an IC50 [6] of 4 µM and an Activity [21] of 939 kcal/mol.

In the case of `COc1cc(-c2oc3ccccc3c(=O)c2O)cc(OC)c1OC`, the “fold change (FC)” value (HCT-116 [22]) is reported as 1.5, the “fold change (FC)” value (Mus musculus) is reported as 3 and the IC50 (HCT-116 [23]) is reported as 3.3 µM.

`CCCCc1nc(Cl)c(COC(=O)CCC(=O)Oc2ccc(-c3oc4cc(O)cc(O)c4c(=O)c3O)cc2O)n1Cc1ccc(-c2ccccc2-c2nnn[nH]2)cc1` showed an IC50 [24] of 0.14 µM.

`COc1cc(OC)c2c(=O)c(OC)c(-c3ccc(OC)c(OC)c3)oc2c1` gave an IC50 (MDA-MB-231 [4]) of 2.04 µM, an Activity (MDA-MB-231 [5]) of 43.7% and an IC50 [6] of 620 µM.

`C[C@@H]1O[C@@H](OC[C@H]2O[C@@H](Oc3c(-c4ccc(O)c(O)c4)oc4cc(O)cc(O)c4c3=O)[C@H](O)[C@@H](O)[C@@H]2O)[C@H](O)[C@H](O)[C@H]1O` [RUTIN] gave an MIC (Candida albicans [15]) of 37.5 µg/mL (≈ 61.4 µM), an MIC (Candida albicans [16]) of 37.5 µg/mL (≈ 61.4 µM) and an MIC (Candida albicans [18]) of 37.5 µg/mL (≈ 61.4 µM). It also gave an MIC (Candida albicans [20]) of 37.5 µg/mL (≈ 61.4 µM).

In the case of `COc1cc(OC)c2c(=S)c(OC)c(-c3ccc(OC)c(OC)c3)oc2c1`, the IC50 [6] is reported as 360 µM.

For `O=c1c(O)c(-c2ccc(O)c(O)c2)oc2c(CN3CCCCC3)c(O)cc(O)c12`, the inhibition [3] was 23.2% and the Kd [25] was over 2000 µM.

`O=c1c(O)c(-c2ccc(O)c(O)c2)oc2cc(O[C@H]3O[C@H](CO)[C@@H](O)[C@H](O)[C@H]3O)cc(O)c12` gave a CC50 at 48 h [26] of over 100 µg/mL and an IC50 (Influenza A virus) of 2.1 µg/mL (≈ 4.52 µM).

Work on `O=c1c(O)c(-c2ccccc2)oc2cc(O)cc(O)c12` [GALANGIN] yielded an MIC (Enterobacter cloacae) of 0.25 µg/mL (≈ 0.925 µM), an MIC (Proteus mirabilis) of 0.25 µg/mL (≈ 0.925 µM) and an MIC (Klebsiella pneumoniae) of 0.25 µg/mL (≈ 0.925 µM). The MIC (Bacillus subtilis) was 0.25 µg/mL (≈ 0.925 µM), the MIC (Heyndrickxia coagulans) was 0.25 µg/mL (≈ 0.925 µM) and the MIC (Bacillus cereus) was 0.25 µg/mL (≈ 0.925 µM). It also gave an MIC (Staphylococcus aureus) of 0.25 µg/mL (≈ 0.925 µM) and an MIC (Escherichia coli) of 0.25 µg/mL (≈ 0.925 µM).

With `CCCCc1nc(Cl)c(COC(=O)CCC(=O)Oc2cc(-c3oc4cc(O)cc(O)c4c(=O)c3O)ccc2O)n1Cc1ccc(-c2ccccc2-c2nnn[nH]2)cc1` the Activity (U-87 MG) was 38%, the Activity (LN-229) was 39% and the IC50 [24] was 0.14 µM.
